The supplement of paper PMC10307832

Assays:
Test in all cases: relative viability (nuclei count vs DMSO), 5 days (fraction); higher = more cells survive
NCI-H727 = test system: NCI-H727
Summary of the method: (§1)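 After 5 days of treatment, lung cancer cells in 1536-well plates were fixed and stained in a single step (final 0.05% Triton X-100, 1% formaldehyde, 1 ug/ml Hoechst) and their nuclei counted on 4× images. Treatment had been applied by pin tool the day after seeding as one drug alone or as a fixed anchor-drug dose with five library-drug doses (not always all listed) in √10 steps. Relative viability is the nuclei count of treated wells divided by that of vehicle wells, and values are medians of duplicate plates.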

NCI-H441 = test system: NCI-H441
Summary of the method: as §1

NCI-H2087 = test system: NCI-H2087
Summary of the method: as §1

H3255 = test system: H3255
Summary of the method: as §1

NCI-H1915 = test system: NCI-H1915
Summary of the method: as §1

ABC-1 = test system: ABC-1
Summary of the method: as §1

NCI-H520 = test system: NCI-H520
Summary of the method: as §1

NCI-H661 = test system: NCI-H661
Summary of the method: as §1

201T = test system: 201T
Summary of the method: as §1

NCI-H2023 = test system: NCI-H2023
Summary of the method: as §1

A-427 = test system: A-427
Summary of the method: as §1

`CC(=O)O[C@@]12CO[C@@H]1C[C@H](O)[C@@]1(C)C(=O)[C@H](O)C3=C(C)[C@@H](OC(=O)[C@H](O)[C@@H](NC(=O)OC(C)(C)C)c4ccccc4)C[C@@](O)([C@@H](OC(=O)c4ccccc4)[C@H]21)C3(C)C` [Docetaxel] + Cc1nc(NC(=O)N2CCC[C@H]2C(N)=O)sc1-c1ccnc(C(C)(C)C(F)(F)F)c1 [Alpelisib] (partner 2 µM) gave a relative viability (NCI-H727; first compound 0.006325 µM) of 0.298, a relative viability (NCI-H727; first compound 0.02 µM) of 0.23 and a relative viability (NCI-H441; first compound 0.0002 µM) of 0.579. The relative viability (NCI-H441; first compound 0.000632 µM) was 0.677, the relative viability (NCI-H441; first compound 0.002 µM) was 0.323 and the relative viability (NCI-H441; first compound 0.006325 µM) was 0.205. The relative viability (NCI-H441; first compound 0.02 µM) was 0.172, the relative viability (NCI-H2087; first compound 0.0002 µM) was 0.916 and the relative viability (NCI-H2087; first compound 0.000632 µM) was 0.753. The relative viability (NCI-H2087; first compound 0.002 µM) was 0.253, the relative viability (NCI-H2087; first compound 0.006325 µM) was 0.193 and the relative viability (NCI-H2087; first compound 0.02 µM) was 0.15. It also gave a relative viability (H3255; first compound 0.0002 µM) of 0.572, a relative viability (H3255; first compound 0.000632 µM) of 0.722 and a relative viability (H3255; first compound 0.002 µM) of 0.348. It also gave a relative viability (H3255; first compound 0.006325 µM) of 0.251, a relative viability (NCI-H1915; first compound 0.0002 µM) of 1.02 and a relative viability (NCI-H1915; first compound 0.000632 µM) of 0.971. It also gave a relative viability (NCI-H1915; first compound 0.002 µM) of 0.52, a relative viability (NCI-H1915; first compound 0.006325 µM) of 0.183 and a relative viability (NCI-H1915; first compound 0.02 µM) of 0.135. For the same molecule, the relative viability (ABC-1; first compound 0.0002 µM) was 0.826, the relative viability (ABC-1; first compound 0.000632 µM) was 1.07 and the relative viability (ABC-1; first compound 0.002 µM) was 0.493. The relative viability (ABC-1; first compound 0.006325 µM) was 0.464, the relative viability (ABC-1; first compound 0.02 µM) was 0.337 and the relative viability (NCI-H520; first compound 0.0002 µM) was 0.786. It also gave a relative viability (NCI-H520; first compound 0.000632 µM) of 0.95, a relative viability (NCI-H520; first compound 0.002 µM) of 0.287 and a relative viability (NCI-H520; first compound 0.006325 µM) of 0.152. The relative viability (NCI-H520; first compound 0.02 µM) was 0.13, the relative viability (NCI-H661; first compound 0.0002 µM) was 0.468 and the relative viability (NCI-H661; first compound 0.000632 µM) was 0.582. For the same molecule, the relative viability (NCI-H661; first compound 0.002 µM) was 0.411, the relative viability (NCI-H661; first compound 0.006325 µM) was 0.344 and the relative viability (NCI-H661; first compound 0.02 µM) was 0.176. It also gave a relative viability (201T; first compound 0.0002 µM) of 1.01, a relative viability (201T; first compound 0.000632 µM) of 1.06 and a relative viability (201T; first compound 0.002 µM) of 0.878. It also gave a relative viability (201T; first compound 0.006325 µM) of 0.555, a relative viability (201T; first compound 0.02 µM) of 0.366 and a relative viability (NCI-H2023; first compound 0.0002 µM) of 0.49. For the same molecule, the relative viability (NCI-H2023; first compound 0.000632 µM) was 0.553, the relative viability (NCI-H2023; first compound 0.002 µM) was 0.128 and the relative viability (NCI-H2023; first compound 0.006325 µM) was 0.137. For the same molecule, the relative viability (NCI-H2023; first compound 0.02 µM) was 0.0735, the relative viability (A-427; first compound 0.0002 µM) was 1.02 and the relative viability (A-427; first compound 0.000632 µM) was 1.14. The relative viability (A-427; first compound 0.002 µM) was 0.974, the relative viability (A-427; first compound 0.006325 µM) was 0.204 and the relative viability (A-427; first compound 0.02 µM) was 0.164.
